Common to all, as to experiment: DTP human tumour cell line panel, 48 h
The subject of test [1] is HOP-92 NSCLC.
For test [2], the system named is OVCAR-5 ovarian.
Test [3] deals with NCI-H460 lung.
The test system of test [4] is UACC-62 melanoma.
Test [5] relates to NCI/ADR-RES ovarian.
Test [6] deals with A498 renal.
Test [7] has as its system SN12C renal.
For test [8], the system named is SW-620 colon.
Test [9] deals with OVCAR-3 ovarian.
For test [10], the system named is OVCAR-8 ovarian.
Test [11] deals with BT-549 breast.
The subject of test [12] is T-47D breast.
For test [13], the system named is HCC-2998 colon.
For test [14], the system named is SNB-19 CNS.
Test [15] concerns HL-60(TB) leukemia.
Test [16] relates to CCRF-CEM leukemia.

Where “and” joins values, the source holds several entries; their conditions need not be identical. Identical values can stand only once.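 Interpolation was linear, between the two tested concentrations surrounding the appropriate level; five concentrations were tested over 48 hours in 96-well plates. TGI marks complete inhibition of growth.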

As to `C=C1CC(Cn2cc(C)c(=O)[nH]c2=O)(c2ccc(-c3ccccc3)cc2)OC1=O` (centres undefined), the total growth inhibition concentration (TGI) (in general, the concentration giving total growth inhibition) was determined as 3.75 µM in test [1]; 23.3 µM in test [2]; 20.8 µM in [3]; 3.77 µM in [4]; 13.8 µM in [5]; 16.9 µM in test [6]. Besides, the TGI worked out at 8.26 µM in [7]; 1.91 µM in test [8]; 1.66 µM in test [9]; 4.98 µM in test [10]; 3.08 µM in [11]; 5.51 µM in test [12]. Further, the TGI came to 5.23 µM in test [13] and 27.4 µM in test [14].

In the case of `COC(=O)NN=C(c1ccc(Cl)cc1)c1ccc(Cl)cc1`, the TGI in [2], in test [3], in test [4], in [5], in [15] and in [6] was above 100 µM in each case. Besides, the TGI in [7], in test [8], in [9], in test [10], in [11] and in test [16] was above 100 µM each time. The TGI in test [12], in test [13] and in test [14] was above 100 µM each time.

As for `Cc1ccc2c(=O)c(-c3nnc(N)s3)c[nH]c2n1`, the TGI in test [2], in test [3], in test [4], in [5], in [15] and in test [6] was above 100 µM throughout. In addition, the concentration for total growth inhibition (TGI) in test [7], in test [8], in [9], in test [10], in [11] and in [16] was above 100 µM throughout. In addition, the total growth inhibition concentration (TGI) in test [12] and in [14] was above 100 µM throughout.

As to `COP1(=O)NCc2ncccc2O1` (centres undefined), the concentration for total growth inhibition (TGI) in test [1], in test [2], in test [3], in [4], in test [5] and in [6] was above 100 µM in each case. Moreover, the TGI in test [7], in test [8], in test [9], in test [10], in test [11] and in [16] was above 100 µM in each case. Moreover, the total growth inhibition concentration (TGI) in test [12], in test [13] and in test [14] was above 100 µM throughout.

`COc1ccc2c(c1)nc1n2C(c2c(F)cccc2Cl)SC1` (centres undefined): the concentration for total growth inhibition (TGI) in test [1] was above 100 µM; in test [2] it was above 100 µM; in [3] it was above 35.1 µM; in [4], above 100 µM; in test [5], 4.81 µM; in [6] it was above 29.7 µM. The TGI is above 100 µM in [7]; above 60.2 µM in test [8]; above 26.1 µM in test [9]; 51 µM in test [10]; above 31.3 µM in test [11]; above 100 µM in test [16]. Moreover, the TGI in test [12] was above 52.5 µM; in [13], above 39.8 µM; in test [14], above 58.7 µM.

Consider `[N-]=[N+]=Nc1c([N+](=O)[O-])c(Cl)nc2ccccc12`, for which the TGI in [1] was determined as 3.66 µM; in [2] it was 5.63 µM; in test [3], 33.2 µM; in [4], 9.07 µM; in test [5], 6.3 µM; in test [6], 26.8 µM. Also, the concentration for total growth inhibition (TGI) in test [7] worked out at 5.32 µM; in [8], 1.73 µM; in test [9], 2.86 µM; in [10], 3.98 µM; in [11], 3.11 µM; in test [16], 1.44 µM. In addition, the total growth inhibition concentration (TGI) in [12] was 4.82 µM; in test [13], 4.17 µM; in test [14], 27.8 µM.

For `COc1ccc(C(C2C(=O)N(C)C(=O)N(C)C2=O)C(F)(F)C(=O)N(C)C)cc1` (centres undefined), the TGI in test [1], in test [2], in [3], in test [4], in [5] and in [6] was above 100 µM each time. In addition, the TGI in test [8], in test [9], in [10], in test [11], in [16] and in test [12] was above 100 µM in each case. Moreover, the TGI in test [13] and in test [14] was above 100 µM in each case.

With `COc1ccc(-n2c(C)nc3ccc(NC4OCC(O)C(O)C4O)cc3c2=O)cc1` (centres undefined), the total growth inhibition concentration (TGI) is above 100 µM in test [2]; above 100 µM in test [3]; above 100 µM in test [4]; above 100 µM in test [5]; 62.4 µM and 68.2 µM in [15]; above 100 µM in test [6]. For the same compound, the concentration for total growth inhibition (TGI) in test [7] was above 100 µM; in [8], > 100 µM and 72.6 µM; in test [9], above 100 µM; in test [10], 94.6 µM and 82.3 µM; in [11], above 100 µM; in test [12] it was above 100 µM. Further, the TGI in [13] and in [14] was above 100 µM throughout.

For the compound `CCOC(=O)c1cc2c([nH]1)C(=O)CC1=C2CCN1Cc1ccccc1`, the TGI in test [1] was determined as 28.3 µM; in test [3] it was 39.2 µM; in test [4], 28.4 µM; in [5] it was 43.5 µM; in test [15] it was 54.1 µM; in [6], 29 µM. For the same compound, the TGI in test [7] was 35.3 µM; in test [8], 23.3 µM; in test [10] it was 46.6 µM; in test [11], 38.3 µM; in [16], 28.6 µM; in [12], 6.77 µM. This compound also yielded a TGI in test [14] of 31.8 µM.

The values are drawn from PubChem BioAssay (NCI).
